In EP4772510A2, “BENZAZEPINONE COMPOUND AND USE THEREOF” (HANGZHOU BIO-SINCERITY PHARMA-TECHCO., LTD., priority 2023, dated 2025):

Experiments:
[1] = Pharmacokinetic experiment in SD rats; settings: p.o, 5 mg/kg vs i.v, 0.5 mg/kg
Description: (§1) Example 59: Pharmacokinetic Experiment of Compounds in SD Rats
(§2) SD rats, male, 6-8 weeks old, purchased from Zhejiang Vital River Laboratory Animal Technology Co., Ltd., production license No.: SCXK (Zhejiang) 2019-0001. The animals were maintained in an SPF-grade animal room of Hangzhou Bio-Sincerity Pharma-Tech Co., Ltd., with the experimental animal use license No. of SYXK (Zhejiang) 2021-0014. The animals were used after being acclimatized for at least one week. All experiments were performed in strict compliance with the regulations on experimental animals.
(§3) Four hours after administration, food was provided.
(§4) After administration to SD rats, about 300 µL of blood was collected from the orbit of each animal and anticoagulated with EDTA-Na2. […] The collected blood was placed in an ice bath and centrifuged within 1 h to separate plasma (centrifugation conditions: 2000× g, 10 min, 4 °C). 50 µL of plasma sample was taken, subjected to protein precipitation, and then assayed by UHPLC-MS. The assay data were analyzed and processed using WinNonLin8.1 pharmacokinetic software to obtain pharmacokinetic parameters.

in vivo = settings: male, SD, rat, plasma
Description: as §1, §2, §3, §4

U937 cells = experiment: Inhibition of TNF-α-induced necroptosis of U937 cells (CCK-8 assay); assay type: cell-based, human; settings: Homo sapiens, U-937, TNF-α 20 ng/mL + BV6 2 µM + Z-VAD-FMK 20 µM, 18 h
How it was run: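 U937 cells (3.6 × 10^4/well) rested 6 h, then exposed to TNF-α 20 ng/mL, BV6 2 µM and Z-VAD-FMK 20 µM plus compound (8-point 3-fold series, 1000–0.46 nM, duplicate) for 18 h. Viability by CCK-8, absorbance at 450 nm after 2-4 h at 37 °C; EC50 calculated.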

HT-29 cells = experiment: Inhibition of TNF-α-induced necroptosis of HT-29 cells (SRB method); assay type: cell-based, human; settings: Homo sapiens, HT-29, TNF-α 20 ng/mL + BV6 2 µM + Z-VAD-FMK 20 µM, 18 h
How it was run: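 HT-29 cells (3 × 10^4/well, 24 h) were treated 18 h with compound (8 three-fold dilutions, 1000.00-0.46 nM, duplicate) plus TNF-α 20 ng/mL, BV6 2 µM and Z-VAD-FMK 20 µM final, at 37 °C. Viability was read by SRB absorbance; EC50 values were fitted.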

Row | Compound | EC50 (U937 cells) | EC50 (HT-29 cells) | also measured
1 | O=C(NC1CCc2cccc3c2N(CC3)C1=O)c1ncn(Cc2c(F)cccc2F)n1 (stereo not drawn) [Example 13 in CN20191051 8248X, 1-(2,6-difluorobenzyl)-N-(4-oxo-1,2,3,4,6,7-hexahydroazepino[3,2,1-hi]indol-3-yl)-1H-1,2,4-triazole-3-carboxamide, reference compound] |  |  | Fabs (%) [1]: 12.55 ± 6.41%; AUC(0-t) (in vivo; intravenous, 0.5 mg/kg): 271 ± 38 ng·h/mL; Cmax (in vivo; intravenous, 0.5 mg/kg): 983 ± 106 ng/mL; clearance (in vivo; intravenous, 0.5 mg/kg): 31 ± 4.47 mL/min/kg; half-life (in vivo; intravenous, 0.5 mg/kg): 26.4 ± 15.6 min; AUC(0-t) (in vivo; oral, 5 mg/kg): 340 ± 174 ng·h/mL; CL/F (in vivo; oral, 5 mg/kg): 8.37 ± 4.01 mL/min/kg; Cmax (in vivo; oral, 5 mg/kg): 467 ± 215 ng/mL; half-life (in vivo; oral, 5 mg/kg): 20.4 ± 8.4 min
2 | O=C(NC1CCc2cc(C#Cc3cnn(C(F)F)c3)cc3c2N(CC3)C1=O)c1ncn(Cc2ccc(F)c(F)c2)n1 (stereo not drawn) [III-23, 1-(3,4-difluorobenzyl)-N-(9-((1-(difluoromethyl)-1H-pyrazol-4-yl)ethynyl)-4-oxo-1,2,3,4,6,7-hexahydroazepino[3,2,1-hi]indol-3-yl)-1H-1,2,4-triazole-3-carboxamide] | 10 to 100 nM | 10 to 100 nM | 
3 | O=C(NC1CCc2cc(C#Cc3cnn(C(F)F)c3)cc3c2N(CC3)C1=O)c1ncn(Cc2ccc(F)cc2)n1 (stereo not drawn) [III-24, N-(9-((1-(difluoromethyl)-1H-pyrazol-4-yl)ethynyl)-4-oxo-1,2,3,4,6,7-hexahydroazepino[3,2,1-hi]indol-3-yl)-1-(4-fluorobenzyl)-1H-1,2,4-triazole-3-carboxamide] | 5 to 10 nM | 10 to 100 nM | 
4 | O=C(NC1CCc2cc(C#Cc3cnn4c3COCC4)cc3c2N(CC3)C1=O)c1ncn(Cc2c(F)cccc2F)n1 (stereo not drawn) [III-27, 1-(2,6-difluorobenzyl)-N-(9-((6,7-dihydro-4H-pyrazolo[5,1-c] [1,4]oxazin-3-yl)ethynyl)-4-oxo-1,2,3,4,6,7-hexahydroazepino[3,2,1-hi]indol-3-yl)-1H-1,2,4-triazole-3-carboxamide] | < 5 nM | < 5 nM | 
5 | C=Cn1ncc(C#Cc2cc3c4c(c2)CCN4C(=O)C(NC(=O)c2ncn(Cc4c(F)cccc4F)n2)CC3)c1C=O (stereo not drawn) [III-28, 1-(2,6-difluorobenzyl)-N-(9-((5-formyl-1-vinyl-1H-pyrazol-4-yl)ethynyl)-4-oxo-1,2,3,4,6,7-hexahydroazepino[3,2,1-hi]indol-3-yl)-1H-1,2,4-triazole-3-carboxamide] | < 5 nM | < 5 nM | 
6 | O=C(NC1CCc2cc(C#Cc3cnn(C4COC4)c3)cc3c2N(CC3)C1=O)c1ncn(Cc2c(F)cccc2F)n1 (stereo not drawn) [III-29, 1-(2,6-difluorobenzyl)-N-(9-((1-(oxetan-3-yl)-1H-pyrazol-4-yl)ethynyl)-4-oxo-1,2,3,4,6,7-hexahydroazepino[3,2,1-hi]indol-3-yl)-1H-1,2,4-triazole-3-carboxamide] | < 5 nM | < 5 nM | 
7 | O=C(NC1CCc2cc(C#Cc3cnn(C4CCC4)c3)cc3c2N(CC3)C1=O)c1ncn(Cc2c(F)cccc2F)n1 (stereo not drawn) [III-30, N-(9-((1-cyclobutyl-1H-pyrazol-4-yl)ethynyl)-4-oxo-1,2,3,4,6,7-hexahydroazepino[3,2,1-hi]indol-3-yl)-1-(2,6-difluorobenzyl)-1H-1,2,4-triazole-3-carboxamide] | < 5 nM | < 5 nM | 
8 | Cn1cc(C#Cc2cc3c4c(c2)CCN4C(=O)C(NC(=O)c2ncn(Cc4ccccn4)n2)CC3)cn1 (stereo not drawn) [III-31, N-(9-((1-methyl-1H-pyrazol-4-yl)ethynyl)-4-oxo-1,2,3,4,6,7-hexahydroazepino[3,2,1-hi]indol-3-yl)-1-(pyridin-2-ylmethyl)-1H-1,2,4-triazole-3-carboxamide] | 5 to 10 nM | < 5 nM | 
9 | Cn1cc(C#Cc2cc3c4c(c2)CCN4C(=O)C(NC(=O)c2ncn(Cc4ccccc4)n2)CC3)cn1 (stereo not drawn) [III-32, 1-benzyl-N-(9-((1-methyl-1H-pyrazol-4-yl)ethynyl)-4-oxo-1,2,3,4,6,7-hexahydroazepino[3,2,1-hi]indol-3-yl)-1H-1,2,4-triazole-3-carboxamide] | < 5 nM | < 5 nM | 
10 | Cn1cc(C#Cc2cc3c4c(c2)CCN4C(=O)C(NC(=O)c2ccn(Cc4c(F)cccc4F)n2)CC3)cn1 (stereo not drawn) [XIII-1, 1-(2,6-difluorobenzyl)-N-(9-((1-methyl-1H-pyrazol-4-yl)ethynyl)-4-oxo-1,2,3,4,6,7-hexahydroazepino[3,2,1-hi]indol-3-yl)-1H-pyrazole-3-carboxamide] | 10 to 100 nM | 10 to 100 nM | 
